Reference: ChEMBL document CHEMBL1148995, “Antitumor agents from bohemic acid complex, VI. Schaunardimycin” (J Nat Prod, 1984)

Legend:
L1210 [1] = assay: Antitumor activity against mouse L1210 cells implanted in CDF1 mouse assessed as median survival time at 25.6 mg/kg, ip single dose on day 1; assay type: functional; settings: route intraperitoneal
L1210 [2] = assay: Antitumor activity against mouse L1210 cells implanted in CDF1 mouse assessed as median survival time at 6.4 mg/kg, ip single dose on day 1; assay type: functional; settings: route intraperitoneal
L1210 [3] = assay: Antitumor activity against mouse L1210 cells implanted in CDF1 mouse assessed as median survival time at 3.2 mg/kg, ip single dose on day 1; assay type: functional; settings: route intraperitoneal
L1210 [4] = assay: Antitumor activity against mouse L1210 cells implanted in CDF1 mouse assessed as median survival time at 1.6 mg/kg, ip single dose on day 1; assay type: functional; settings: route intraperitoneal
L1210 [5] = assay: Antitumor activity against mouse L1210 cells implanted in CDF1 mouse assessed as median survival time at 0.4 mg/kg, ip single dose on day 1; assay type: functional; settings: route intraperitoneal
L1210 [6] = assay: Antitumor activity against mouse L1210 cells implanted in CDF1 mouse assessed as median survival time at 0.2 mg/kg, ip single dose on day 1; assay type: functional; settings: route intraperitoneal
L1210 [7] = assay: Antitumor activity against mouse L1210 cells implanted in CDF1 mouse assessed as median survival time at 6.4 mg/kg, ip qd for 1 to 5 days; assay type: functional; settings: route intraperitoneal
L1210 [8] = assay: Antitumor activity against mouse L1210 cells implanted in CDF1 mouse assessed as median survival time at 3.2 mg/kg, ip qd for 1 to 5 days; assay type: functional; settings: route intraperitoneal
L1210 [9] = assay: Antitumor activity against mouse L1210 cells implanted in CDF1 mouse assessed as median survival time at 1.6 mg/kg, ip qd for 1 to 5 days; assay type: functional; settings: route intraperitoneal
L1210 [10] = assay: Antitumor activity against mouse L1210 cells implanted in CDF1 mouse assessed as median survival time at 0.8 mg/kg, ip qd for 1 to 5 days; assay type: functional; settings: route intraperitoneal
L1210 [11] = assay: Antitumor activity against mouse L1210 cells implanted in CDF1 mouse assessed as median survival time at 0.4 mg/kg, ip qd for 1 to 5 days; assay type: functional; settings: route intraperitoneal
L1210 [12] = assay: Antitumor activity against mouse L1210 cells implanted in CDF1 mouse assessed as median survival time at 0.2 mg/kg, ip qd for 1 to 5 days; assay type: functional; settings: route intraperitoneal
L1210 [13] = assay: Antitumor activity against mouse L1210 cells implanted in CDF1 mouse at 25.6 mg/kg, ip single dose on day 1 relative to control; assay type: functional; settings: route intraperitoneal
L1210 [14] = assay: Antitumor activity against mouse L1210 cells implanted in CDF1 mouse at 1.6 mg/kg, ip single dose on day 1 relative to control; assay type: functional; settings: route intraperitoneal
L1210 [15] = assay: Antitumor activity against mouse L1210 cells implanted in CDF1 mouse at 0.4 mg/kg, ip single dose on day 1 relative to control; assay type: functional; settings: route intraperitoneal
L1210 [16] = assay: Antitumor activity against mouse L1210 cells implanted in CDF1 mouse at 0.2 mg/kg, ip single dose on day 1 relative to control; assay type: functional; settings: route intraperitoneal
L1210 [17] = assay: Antitumor activity against mouse L1210 cells implanted in CDF1 mouse at 6.4 mg/kg, ip qd for 1 to 5 days relative to control; assay type: functional; settings: route intraperitoneal
L1210 [18] = assay: Antitumor activity against mouse L1210 cells implanted in CDF1 mouse at 3.2 mg/kg, ip qd for 1 to 5 days relative to control; assay type: functional; settings: route intraperitoneal
L1210 [19] = assay: Antitumor activity against mouse L1210 cells implanted in CDF1 mouse at 1.6 mg/kg, ip qd for 1 to 5 days relative to control; assay type: functional; settings: route intraperitoneal
L1210 [20] = assay: Antitumor activity against mouse L1210 cells implanted in CDF1 mouse at 0.8 mg/kg, ip qd for 1 to 5 days relative to control; assay type: functional; settings: route intraperitoneal
L1210 [21] = assay: Antitumor activity against mouse L1210 cells implanted in CDF1 mouse at 0.4 mg/kg, ip qd for 1 to 5 days relative to control; assay type: functional; settings: route intraperitoneal
Mus musculus [22] = assay: Toxicity in mouse L1210 cells implanted CDF1 mouse assessed as average weight gain at 25.6 mg/kg, ip single dose on day 1; assay type: organism-based; parameters: dose 25.6 mg/kg, route intraperitoneal; settings: in vivo
Mus musculus [23] = assay: Toxicity in mouse L1210 cells implanted CDF1 mouse assessed as average weight gain at 12.8 mg/kg, ip single dose on day 1; assay type: organism-based; parameters: dose 12.8 mg/kg, route intraperitoneal; settings: in vivo
Mus musculus [24] = assay: Toxicity in mouse L1210 cells implanted CDF1 mouse assessed as average weight gain at 6.4 mg/kg, ip single dose on day 1; assay type: organism-based; parameters: dose 6.4 mg/kg, route intraperitoneal; settings: in vivo
Mus musculus [25] = assay: Toxicity in mouse L1210 cells implanted CDF1 mouse assessed as average weight gain at 1.6 mg/kg, ip single dose on day 1; assay type: organism-based; parameters: dose 1.6 mg/kg, route intraperitoneal; settings: in vivo
Mus musculus [26] = assay: Toxicity in mouse L1210 cells implanted CDF1 mouse assessed as average weight gain at 0.2 mg/kg, ip single dose on day 1; assay type: organism-based; parameters: dose 0.2 mg/kg, route intraperitoneal; settings: in vivo
Mus musculus [27] = assay: Toxicity in mouse L1210 cells implanted CDF1 mouse assessed as average weight gain at 6.4 mg/kg, ip qd for 1 to 5 days; assay type: organism-based; parameters: dose 6.4 mg/kg, route intraperitoneal; settings: in vivo
Mus musculus [28] = assay: Toxicity in mouse L1210 cells implanted CDF1 mouse assessed as average weight gain at 3.2 mg/kg, ip qd for 1 to 5 days; assay type: organism-based; parameters: dose 3.2 mg/kg, route intraperitoneal; settings: in vivo
Mus musculus [29] = assay: Toxicity in mouse L1210 cells implanted CDF1 mouse assessed as average weight gain at 1.6 mg/kg, ip qd for 1 to 5 days; assay type: organism-based; parameters: dose 1.6 mg/kg, route intraperitoneal; settings: in vivo
Mus musculus [30] = assay: Toxicity in mouse L1210 cells implanted CDF1 mouse assessed as average weight gain at 0.8 mg/kg, ip qd for 1 to 5 days; assay type: organism-based; parameters: dose 0.8 mg/kg, route intraperitoneal; settings: in vivo
Mus musculus [31] = assay: Toxicity in mouse L1210 cells implanted CDF1 mouse assessed as average weight gain at 0.4 mg/kg, ip qd for 1 to 5 days; assay type: organism-based; parameters: dose 0.4 mg/kg, route intraperitoneal; settings: in vivo
Mus musculus [32] = assay: Toxicity in mouse L1210 cells implanted CDF1 mouse assessed as average weight gain at 0.2 mg/kg, ip qd for 1 to 5 days; assay type: organism-based; parameters: dose 0.2 mg/kg, route intraperitoneal; settings: in vivo
Mus musculus [33] = assay: Toxicity in mouse L1210 cells implanted CDF1 mouse assessed as survivors on day 5 at 25.6 mg/kg, ip single dose on day 1; assay type: organism-based; parameters: dose 25.6 mg/kg, route intraperitoneal; settings: in vivo
Mus musculus [34] = assay: Toxicity in mouse L1210 cells implanted CDF1 mouse assessed as survivors on day 5 at 6.4 mg/kg, ip single dose on day 1; assay type: organism-based; parameters: dose 6.4 mg/kg, route intraperitoneal; settings: in vivo
Mus musculus [35] = assay: Toxicity in mouse L1210 cells implanted CDF1 mouse assessed as survivors on day 5 at 3.2 mg/kg, ip single dose on day 1; assay type: organism-based; parameters: dose 3.2 mg/kg, route intraperitoneal; settings: in vivo
Mus musculus [36] = assay: Toxicity in mouse L1210 cells implanted CDF1 mouse assessed as survivors on day 5 at 1.6 mg/kg, ip single dose on day 1; assay type: organism-based; parameters: dose 1.6 mg/kg, route intraperitoneal; settings: in vivo
Mus musculus [37] = assay: Toxicity in mouse L1210 cells implanted CDF1 mouse assessed as survivors on day 5 at 0.8 mg/kg, ip single dose on day 1; assay type: organism-based; parameters: dose 0.8 mg/kg, route intraperitoneal; settings: in vivo
Mus musculus [38] = assay: Toxicity in mouse L1210 cells implanted CDF1 mouse assessed as survivors on day 5 at 0.4 mg/kg, ip single dose on day 1; assay type: organism-based; parameters: dose 0.4 mg/kg, route intraperitoneal; settings: in vivo
Mus musculus [39] = assay: Toxicity in mouse L1210 cells implanted CDF1 mouse assessed as survivors on day 5 at 6.4 mg/kg, ip qd for 1 to 5 days; assay type: organism-based; parameters: dose 6.4 mg/kg, route intraperitoneal; settings: in vivo
Mus musculus [40] = assay: Toxicity in mouse L1210 cells implanted CDF1 mouse assessed as survivors on day 5 at 3.2 mg/kg, ip qd for 1 to 5 days; assay type: organism-based; parameters: dose 3.2 mg/kg, route intraperitoneal; settings: in vivo
Mus musculus [41] = assay: Toxicity in mouse L1210 cells implanted CDF1 mouse assessed as survivors on day 5 at 0.8 mg/kg, ip qd for 1 to 5 days; assay type: organism-based; parameters: dose 0.8 mg/kg, route intraperitoneal; settings: in vivo

CC[C@@]1(O)C[C@H](O[C@H]2C[C@H](NC)[C@H](O[C@H]3C[C@H](O)[C@H](O)[C@H](C)O3)[C@H](C)O2)c2c(cc3c(c2O)C(=O)c2c(O)ccc(O)c2C3=O)[C@H]1C(=O)OC [SCHAUNARDIMYCIN]
MST (L1210 [1]): 8 days
MST (L1210 [2]): 7 days
MST (L1210 [3]): 7 days
MST (L1210 [4]): 6.5 days
MST (L1210 [5]): 6 days
MST (L1210 [6]): 6 days
MST (L1210 [7]): 8 days
MST (L1210 [8]): 8 days
MST (L1210 [9]): 7.5 days
MST (L1210 [10]): 7 days
MST (L1210 [11]): 7 days
MST (L1210 [12]): 7 days
T/C (L1210 [13]): 133%
T/C (L1210 [14]): 108%
T/C (L1210 [15]): 100%
T/C (L1210 [16]): 100%
T/C (L1210 [17]): 133%
T/C (L1210 [18]): 133%
T/C (L1210 [19]): 125%
T/C (L1210 [20]): 117%
T/C (L1210 [21]): 117%
Activity (Mus musculus [22]): -1.4 g
Activity (Mus musculus [23]): 0.7 g
Activity (Mus musculus [24]): 2.5 g
weight gain (Mus musculus [25]): 2.7 g
weight gain (Mus musculus [26]): 2.5 g
Activity (Mus musculus [27]): 1.6 g
Activity (Mus musculus [28]): 2.8 g
weight gain (Mus musculus [29]): 3 g
weight gain (Mus musculus [30]): 3.5 g
weight gain (Mus musculus [31]): 2.6 g
weight gain (Mus musculus [32]): 2.6 g
Activity (Mus musculus [33]): Active
Activity (Mus musculus [34]): Active
Activity (Mus musculus [35]): Active
Activity (Mus musculus [36]): Active
Activity (Mus musculus [37]): Active
Activity (Mus musculus [38]): Active
Activity (Mus musculus [39]): Active
Activity (Mus musculus [40]): Active
Activity (Mus musculus [41]): Active
